For 42 molecules, IC50 results are on record in US20070078263A1, “BIARYL SUBSTITUTED HETEROCYCLE INHIBITORS OF LTA4H FOR TREATING INFLAMMATION” (deCODE Chemistry, Inc., priority 2005, published 2007).

Counter-ions that a name gives are not always drawn. Like-named read-outs stand apart in the source and are kept apart here.

The test concerns the target T1, human LTA4 hydrolase (Homo sapiens, UniProt P09960).
T1 construct: A human LTA4 hydrolase full-length cDNA clone (NM 000895) was purchased; His tag (6xHis of vector pDEST17); made in house; host or cells: Escherichia coli BL21-AI
T1 sequence (P09960 1-611): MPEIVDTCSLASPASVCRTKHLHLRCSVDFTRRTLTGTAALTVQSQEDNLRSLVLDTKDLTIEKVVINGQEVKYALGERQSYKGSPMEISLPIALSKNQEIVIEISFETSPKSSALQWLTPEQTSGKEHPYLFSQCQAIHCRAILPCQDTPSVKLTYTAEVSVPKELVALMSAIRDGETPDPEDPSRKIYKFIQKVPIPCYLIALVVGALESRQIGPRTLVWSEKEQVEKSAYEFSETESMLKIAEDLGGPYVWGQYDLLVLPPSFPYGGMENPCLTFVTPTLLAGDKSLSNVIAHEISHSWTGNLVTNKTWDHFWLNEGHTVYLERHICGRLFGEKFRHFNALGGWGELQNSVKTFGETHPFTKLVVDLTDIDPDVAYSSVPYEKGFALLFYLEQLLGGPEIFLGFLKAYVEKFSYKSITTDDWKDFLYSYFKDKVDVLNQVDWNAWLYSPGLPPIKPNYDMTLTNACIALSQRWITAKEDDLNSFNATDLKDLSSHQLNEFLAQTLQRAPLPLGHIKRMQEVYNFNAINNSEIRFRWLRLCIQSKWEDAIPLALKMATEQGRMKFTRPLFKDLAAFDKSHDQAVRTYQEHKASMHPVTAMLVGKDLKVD
The test is described as follows: In vitro assay testing inhibitory activity against purified recombinant human LTA4 hydrolase (LTB4 formed, LC-MS/MS).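 Note: 200 nM enzyme preincubated 10 min at room temperature with serial inhibitor dilutions in pH 8.0 Tris buffer with BSA and 10% DMSO, then 2 µM LTA4 added.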 Format: biochemical.

[1] abbreviates: recombinant human LTA4 hydrolase 200 nM, LTA4 2 μM, read-out: AvgIC50.

Description: (1) In vitro assay testing inhibitory activity against purified recombinant human LTA4 hydroase. […] The gene was amplified by polymerase chain reaction and transferred via pDONR201 into the bacterial expression vector pDEST17 by recombination (both plasmids from Invitrogen, Carlsbad, Calif.). The resulting construct was transformed into Escherichia coli BL21-AI (Invitrogen), and expression was induced by chemical induction with arabinose. The recombinant enzyme was purified by chromatography on an FPLC system (Amersham Biosciences, Uppsala, Sweden) using immobilized metal affinity chromatography (Ni-NTA Superflow, Qiagen, Hilden, Germany) and anion exchange chromatography (MonoQ HR 10/10, Amersham Biosciences).
The compounds of the invention were incubated in a series of dilutions with 200 nM of recombinant enzyme in assay buffer (100 mM Tris-HCl, 100 mM NaCl, 5 mg/ml fatty-acid free BSA, 10% DMSO, pH 8.0) for 10 min at room temperature to allow binding between LTA4 hydrolase and the inhibitors. LTA4 was prepared by alkaline hydrolysis of LTA4 methyl ester (Biomol, Plymouth Meeting, Pa., or Cayman Chemicals, Ann Arbor, Mich.). A solution of 10 μg of the ester was dried under a nitrogen stream and redissolved in 60 μl of a solution of 80% acetone and 20% 0.25 M NaOH. After incubation for 40 min at room temperature the resulting approximately 500 μM tock of LTA4 was kept at −80° C. for no more than a few days prior to use.
Immediately before the assay, LTA4 was diluted to a concentration of 10 μM in assay buffer (without DMSO) and added to the reaction mixture to a final concentration of 2 μM to initiate the enzyme reaction. […] The samples were then kept at 4° C. overnight to complete protein precipitation and centrifuged for 15 min at 1800 g.

Take `c1ccc(Cc2ccc(OCCC3CCCCN3)cc2)cc1` (racemic) [Example 72, (+/−)-2-[(4-Benzylphenoxy)ethyl]-piperidine hydrochloride]: the IC50 under setting [1] was less than 5 µM.

Regarding `Clc1ccc(Cc2ccc(OCC3CCCCN3)cc2)cc1` (stereo in doubt) [Example 165, (S)-2-[4-(4-Chlorobenzyl)-phenoxymethyl]-piperidine hydrochloride], the IC50 under setting [1] is less than 5 µM.

Consider `Clc1ccc(Cc2ccc(OCC3CCCCN3)cc2)cc1` (stereo in doubt) [Example 166, (R)-2-[4-(4-Chlorobenzyl)-phenoxymethyl]-piperidine hydrochloride], for which the IC50 under setting [1] is less than 5 µM.

`c1ccc(Cc2ccc(OC[C@H]3CCCN3Cc3ccncc3)cc2)cc1` [Example 6, 4-[(R)-2-(4-benzyl-phenoxymethyl)-pyrrolidin-1-ylmethyl]-pyridine]: the IC50 under setting [1] was less than 5 µM.

Take `COC(=O)CCN1CCC[C@@H]1COc1ccc(Cc2ccccc2)cc1` [Example 7, 3-[(R)-2-(4-benzyl-phenoxymethyl)-pyrrolidin-1-yl]-propionic acid methyl ester]: the IC50 under setting [1] was less than 5 µM.

Take `FC(F)(F)Oc1ccc(Oc2ccc(OC[C@H]3CCCN3)cc2)cc1` [Example 11, (R)-2-[4-(4-Trifluoromethoxy-phenoxy)-phenoxymethyl]-pyrrolidine hydrochloride]: the IC50 under setting [1] is less than 5 µM.

Regarding `c1ccc(-c2ccc(Oc3ccc(OC[C@H]4CCCN4)cc3)cc2)cc1` [Example 12, (R)-2-[4-(Biphenyl-4-yloxy)-phenoxymethyl]-pyrrolidine hydrochloride], the IC50 under setting [1] is less than 5 µM.

As for `Cc1ccc(Oc2ccc(OC[C@H]3CCCN3)cc2)cc1` [Example 14, (R)-2-(4-p-Tolyloxy-phenoxymethyl)-pyrrolidine hydrochloride], the IC50 under setting [1] is less than 5 µM.

In the case of `N#Cc1ccc(Oc2ccc(OC[C@H]3CCCN3)cc2)cc1` [Example 15, 4-[4-((R)-1-Pyrrolidin-2-ylmethoxy)-phenoxy]-benzonitrile hydrochloride], the IC50 under setting [1] was less than 5 µM.

In the case of `CC(=O)c1ccc(Oc2ccc(OC[C@H]3CCCN3)cc2)cc1` [Example 17, 1-{4-[4-((R)-1-Pyrrolidin-2-ylmethoxy)-phenoxy]-phenyl}-ethanone hydrochloride], the IC50 under setting [1] is less than 5 µM.

As to `O=C(O)CN1CCC[C@@H]1COc1ccc(Oc2ccc(Cl)cc2)cc1` [Example 18, {(R)-2-[4-(4-Chloro-phenoxy)-phenoxymethyl]-pyrrolidin-1-yl}-acetic acid hydrochloride], the IC50 under setting [1] was less than 5 µM.

On to `FC(F)(F)c1ccc(Oc2ccc(OC[C@@H]3CCCN3)cc2)cc1` [Example 24, (S)-2-[4-(4-trifluoromethyl-phenoxy)-phenoxymethyl]-pyrrolidine], for which, under setting [1], the IC50 is less than 5 µM.

As to `O=C(O)CCCN1CCC[C@H]1COc1ccc(Oc2ccc(C(F)(F)F)cc2)cc1` [Example 25], the IC50 under setting [1] is less than 5 µM.

For `O=C(O)CCN1CCC[C@H]1COc1ccc(Oc2ccc(C(F)(F)F)cc2)cc1` [Example 26, (S)-2-[4-(4-trifluoromethyl-phenoxy)-phenoxymethyl]-pyrrolidine-1-yl}propionic acid sodium salt], under setting [1], the IC50 was less than 5 µM.

For `O=C(O)CN1CCC[C@@H]1COc1ccc(Oc2ccc(C(F)(F)F)cc2)cc1` [Example 28, (R)-2-[4-(4-trifluoromethyl-phenoxy)-phenoxymethyl]-pyrrolidine-1-yl)acetic acid sodium salt], the IC50 under setting [1] was less than 5 µM.

In the case of `O=C(O)CCN1CCC[C@@H]1COc1ccc(Oc2ccc(C(F)(F)F)cc2)cc1` [Example 29, (R)-2-[4-(4-trifluoromethyl-phenoxy)-phenoxymethyl]-pyrrolidine-1-yl}propionic acid sodium salt], the IC50 under setting [1] is less than 5 µM.

Take `Cc1noc(CCCN2CCC[C@@H]2COc2ccc(Cc3ccccc3)cc2)n1` [Example 31]: the IC50 under setting [1] is less than 5 µM.

On to `Cc1noc(CCCN2CCC[C@H]2COc2ccc(Cc3ccccc3)cc2)n1` [Example 32], for which, under setting [1], the IC50 was less than 5 µM.

With `OCCCCN1CCC[C@H]1COc1ccc(Cc2ccccc2)cc1` [Example 33, 4-[(S)-2-(4-Benzyl-phenoxymethyl)-pyrrolidin-1-yl]-butan-1-ol], the IC50 under setting [1] was less than 5 µM.

As for `O=C(O)CCN1CCC[C@H]1COc1ccc(Cc2ccccc2)cc1` [Example 34, 3-[(S)-2-(4-Benzyl-phenoxymethyl)-pyrrolidin-1-yl]-propionic acid HCl salt], under setting [1], the IC50 fell in the range of 5 to 20 µM.

As for `O=C(O)CN1CCC[C@H]1COc1ccc(Cc2ccccc2)cc1` [Example 36, [(S)-2-(4-Benzyl-phenoxymethyl)-pyrrolidin-1-yl]-acetic acid TFA salt], the IC50 under setting [1] is less than 5 µM.

For the molecule `CC(=O)NCCCN1CCC[C@H]1COc1ccc(Oc2ccc(Cl)cc2)cc1` [Example 38, N-(3-{(S)-2-[4-(4-Chloro-phenoxy)-phenoxymethyl]-pyrrolidin-1-yl}-propyl)-acetamide HCl], the IC50 under setting [1] was less than 5 µM.

Regarding `c1ccc(Cc2ccc(NC[C@H]3CCCN3)cc2)cc1` [Example 41, (4-Benzyl-phenyl)-(R)-1-pyrrolidin-2-ylmethyl-anine], the IC50 under setting [1] was less than 5 µM.

On to `c1ccc(Oc2ccc(SC[C@H]3CCCN3)cc2)cc1` [Example 43, (R)-2-(4-Phenoxy-phenylsulfanylmethyl)-pyrrolidine], for which the IC50 under setting [1] was less than 5 µM.

`c1ccc(Nc2ccc(OC[C@H]3CCCN3)cc2)cc1` [Example 44, Phenyl-[4-((R)-1-pyrrolidin-2-ylmethoxy)-phenyl]-amine]: the IC50 under setting [1] was less than 5 µM.

As for `c1ccc(Oc2ccc(OC[C@H]3CCCN3)cc2)cc1` [Example 45, (R)-2-(4-Phenoxy-phenoxymethyl)-pyrrolidine], the IC50 under setting [1] was less than 5 µM.

On to `O=C(c1ccccc1)c1ccc(OC[C@H]2CCCN2)cc1` [Example 46, Phenyl-[4-((R)-1-pyrrolidin-2-ylmethoxy)-phenyl]-methanone], for which the IC50 under setting [1] was in the range of 5 to 20 µM.

`O=C(Cc1ccccc1)c1ccc(OC[C@H]2CCCN2)cc1` [Example 47, 2-Phenyl-1-[4-((R)-1-pyrrolidin-2-ylmethoxy)-phenyl]-ethanone]: under setting [1], the IC50 lay in the range of 5 to 20 µM.

With `c1ccc(CNc2ccc(OC[C@H]3CCCN3)cc2)cc1` [Example 48, Benzyl-[4-((R)-1-pyrrolidin-2-ylmethoxy)-phenyl]-amine], the IC50 is less than 5 µM.

For the molecule `COC(=O)CCN1CCCC[C@H]1COc1ccc(Oc2ccc(Cl)cc2)cc1` [Example 58, 3-{(S)-2-[4-(4-Chloro-phenoxy)-phenoxymethyl]-piperidin-1-yl}-propionic acid methyl ester], the IC50 under setting [1] was less than 5 µM.

As to `O=C(O)CCN1CCCC[C@H]1COc1ccc(Oc2ccc(Cl)cc2)cc1` [Example 59, 3-{(S)-2-[4-(4-Chloro-phenoxy)-phenoxymethyl]-piperidin-1-yl}-propionic acid hydrochloride], under setting [1], the IC50 was less than 5 µM.

Turning to `O=C(O)CN1CCCC[C@H]1COc1ccc(Oc2ccc(Cl)cc2)cc1` [Example 62, {(S)-2-[4-(4-Chloro-phenoxy)-phenoxymethyl]-piperidin-1-yl}-acetic acid hydrochloride], the IC50 under setting [1] was less than 5 µM.

Turning to `Clc1ccc(Oc2ccc(OC[C@@H]3CCCCN3Cc3ncno3)cc2)cc1` [Example 63, (S)-2-[4-(4-Chloro-phenoxy)-phenoxymethyl]-1-[1,2,4]oxadiazol-5-ylmethyl-piperidine hydrochloride], under setting [1], the IC50 was less than 5 µM.

In the case of `O=C(O)CCCN1CCC[C@@H]1COc1ccc(Cc2ccc(Cl)cc2)cc1` [Example 65, 4-{(R)-2-[4-(4-Chloro-benzyl)-phenoxymethyl]-pyrrolidin-1-yl}-butyric acid], the IC50 under setting [1] was less than 5 µM.

As to `c1ccc(Cc2ccc(OCC[C@@H]3CCCCN3)cc2)cc1` [Example 71, (S)-2-[(4-Benzylphenoxy)ethyl]-piperidine hydrochloride], the IC50 under setting [1] is less than 5 µM.

In the case of `c1ccc(CN2CCNC(COc3ccc(Oc4ccccc4)cc3)C2)cc1` (stereo not drawn) [Example 75, dihydrochloride], the IC50 under setting [1] was less than 5 µM.

Turning to `c1ccc(Oc2ccc(OCC3CNCCN3)cc2)cc1` (stereo not drawn) [Example 76, dihydrochloride], the IC50 under setting [1] is less than 5 µM.

In the case of `c1cc(-c2ccc(Cc3ccc(OC[C@H]4CCCCN4)cc3)cc2)cs1` [Example 78, (R)-2-[4-(4-Thiophen-3-yl-benzyl)-phenoxymethyl]-piperidine hydrochloride], the IC50 under setting [1] was less than 5 µM.

As for `O=C(O)CCCN1CCCC[C@@H]1COc1ccc(Oc2ccc(Cl)cc2)cc1` [Example 81, 4-{(R)-2-[4-(4-Chloro-phenoxy)-phenoxymethyl]-piperidin-1-yl}-butyric acid hydrochloride], the IC50 is less than 5 µM.

Consider `O=C1CC[C@@H](COc2ccc(Cc3ccccc3)cc2)N1` [Example 83, (S) 5-(4-Benzyl-phenoxymethyl)-pyrrolidin-2-one hydrochloride salt], for which the IC50 under setting [1] was less than 5 µM.

As to `O=C1CC[C@H](COc2ccc(Cc3ccccc3)cc2)N1` [Example 84, (R) 5-(4-Benzyl-phenoxymethyl)-pyrrolidin-2-one], the IC50 under setting [1] was less than 5 µM.

With `c1ccc(CO[C@H]2CN[C@H](COc3ccc(Oc4ccccc4)cc3)C2)cc1` [Example 85], the IC50 under setting [1] fell in the range of 5 to 20 µM.
